Test results reported in patent US8822514B2, “Multi-cyclic compounds and methods of use” (Amgen Inc., priority 2006, dated 2014).

These compounds were tested against Tie-2 kinase enzyme (Homo sapiens, UniProt Q02763) (assay: Tie-2 Homogenous Time Resolved Flourescent (HTRF) kinase assay). Conditions: 0.01 mM ATP, about 90 minutes at RT; read-out: IC50 for the inhibition of Tie-2 as measured by the HTRF assay.
Assay type: biochemical
Protocol: IC50's for the inhibition of the Tie-2 kinase enzyme for individual compounds were measured using an HTRF assay, utilizing the following procedure:
In a 96 well plate (available from Costar Co.) was placed 1 uL of each test and standard compound per well in 100% DMSO having a 25 uM final compound concentration (3-fold, 10 point dilution). To each well was added 20 uL of a reaction mix formed from […], 0.05% BSA (0.1 uL; from a 10% stock solution available from Sigma-Aldrich Co.), 0.002 mM of BLC HER-2 KKK (Biotinylated Long chain peptide; 0.04 uL; from a […] stock solution), 0.01 mM concentration of ATP (0.02 uL; commercially available from Sigma-Aldrich Co.) and the remaining solution was water (15.84 uL) to make to a total volume of 20 uL/well.
The reaction was initiated in each well by adding 20 uL per well of an enzyme preparation consisting of a 50 mM concentration of Hepes (1.0 uL; from a 1000 mM stock solution commercially available from Gibco Co.), 0.05% concentration of BSA (0.1 uL), 4 mM of DTT (0.08 uL; from a 1000 mM stock solution available from Sigma-Aldrich Co.), a 2.4×10^−7 concentration of Tie-2 (0.02 uL, from a 4 mM concentration stock), with the remaining volume being water (18.8 uL) to dilute the enzyme preparation to a total volume of 20 uL. The plate was incubated for about 90 minutes at RT. After incubation, a 160 uL of a filtered detection mixture, prepared from 0.001 mg/ml of SA-APC (0.0765 uL; available as a 2.09 mg/ml stock solution from Gibco), 0.03125 nM concentration of Eu-Ab (0.1597 uL; available in a 31.3 nM stock solution from Gibco), with the remaining volume being Detection buffer (159.73 uL), was added to each well to stop the reaction therein. The plate was then allowed to equilibrate for about 3 hr and read on a Ruby Star fluorescent reader (available from BMG Technologies, Inc.) using a 4 parameter fit using activity base to calculate the corresponding IC50's for the test and standard compounds in each well.

Chain of Tie-2 kinase enzyme (Q02763 23-1124): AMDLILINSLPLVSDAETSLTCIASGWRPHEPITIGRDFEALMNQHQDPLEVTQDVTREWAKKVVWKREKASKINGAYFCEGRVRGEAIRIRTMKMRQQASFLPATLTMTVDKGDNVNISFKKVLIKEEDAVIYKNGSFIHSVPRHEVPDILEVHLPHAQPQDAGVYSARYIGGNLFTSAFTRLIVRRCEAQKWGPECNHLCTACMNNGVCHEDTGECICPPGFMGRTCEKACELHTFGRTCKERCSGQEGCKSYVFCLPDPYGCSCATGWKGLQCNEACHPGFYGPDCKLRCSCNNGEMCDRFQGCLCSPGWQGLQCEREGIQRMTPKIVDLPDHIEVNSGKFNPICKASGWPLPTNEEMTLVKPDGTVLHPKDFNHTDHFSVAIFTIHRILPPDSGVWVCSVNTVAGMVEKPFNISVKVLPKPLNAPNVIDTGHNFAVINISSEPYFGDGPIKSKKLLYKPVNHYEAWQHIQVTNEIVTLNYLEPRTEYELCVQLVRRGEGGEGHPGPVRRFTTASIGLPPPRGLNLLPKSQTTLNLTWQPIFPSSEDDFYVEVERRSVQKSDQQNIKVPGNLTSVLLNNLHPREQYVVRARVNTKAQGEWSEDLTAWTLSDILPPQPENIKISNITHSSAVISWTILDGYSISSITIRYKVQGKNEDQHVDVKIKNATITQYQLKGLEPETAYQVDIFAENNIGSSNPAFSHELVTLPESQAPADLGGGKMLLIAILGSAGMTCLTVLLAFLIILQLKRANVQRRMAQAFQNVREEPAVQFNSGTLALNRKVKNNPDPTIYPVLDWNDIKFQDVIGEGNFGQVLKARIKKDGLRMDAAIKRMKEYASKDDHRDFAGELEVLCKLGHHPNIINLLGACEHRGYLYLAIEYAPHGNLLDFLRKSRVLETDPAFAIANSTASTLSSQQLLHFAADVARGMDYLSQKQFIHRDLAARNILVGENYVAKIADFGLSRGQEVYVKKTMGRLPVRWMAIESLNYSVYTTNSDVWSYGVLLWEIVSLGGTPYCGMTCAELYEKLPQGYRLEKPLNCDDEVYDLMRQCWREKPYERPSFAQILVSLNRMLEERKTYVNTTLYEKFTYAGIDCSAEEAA

IC50 [nM] | SMILES
≤ 100 | Cc1ccc(C(=O)Nc2cccc(C(C)C)c2)cc1Oc1ccccc1-c1cnco1 [Example 18, N-(3-isopropylphenyl)-4-methyl-3-(2-(oxazol-5-yl)phenoxy)benzamide]
≤ 1000 | O=C(Nc1cccc(OC(F)(F)F)c1)c1cc(Oc2ncccc2-c2cnco2)ccc1F [Example 16, 2-fluoro-5-(3-(oxazol-5-yl)pyridin-2-yloxy)-N-(3-(trifluoromethoxy)phenyl)benzamide]
≤ 1000 | O=C(Nc1ccc(Oc2ncccc2-c2cn[nH]c2)cc1)c1ccccc1Nc1ccccc1 [Example 23, N-(4-(3-(1H-pyrazol-4-yl)pyridin-2-yloxy)phenyl)-2-(phenylamino)benzamide]
≤ 500 | Cc1ccc(C(=O)Nc2cc(C(F)(F)F)ccc2N(C)CCCN(C)C)cc1Oc1ncccc1-c1cnco1 [Example 20, N-(2-((3-(dimethylamino)propyl)(methyl)amino)-5-(trifluoromethyl)phenyl)-4-methyl-3-(3-(oxazol-5-yl)pyridin-2-yloxy)benzamide]
≤ 500 | Cc1ccc(C(=O)Nc2cccc(C(F)(F)F)c2)cc1Oc1ncccc1-c1ccn[nH]1 [Example 15, 3-(3-(1H-pyrazol-5-yl)pyridin-2-yloxy)-4-methyl-N-(3-(trifluoromethyl)phenyl)benzamide]
≤ 100 | Cc1ccc(C(=O)Nc2cccc(C(F)(F)F)c2)cc1Oc1ncccc1-c1cnco1 [Example 22, 4-methyl-3-(3-(oxazol-5-yl)pyridin-2-yloxy)-N-(3-(trifluoromethyl)phenyl)benzamide]
≤ 500 | Cc1ccc(C(=O)Nc2cc(C(F)(F)F)ccc2N(C)CCCN(C)C)cc1Oc1ccccc1-c1cnco1 [Example 19, N-(2-((3-(dimethylamino)propyl)(methyl)amino)-5-(trifluoromethyl)phenyl)-4-methyl-3-(2-(oxazol-5-yl)phenoxy)benzamide]

Continued, compound first:

SMILES | IC50 [nM]
Cc1ccc(C(=O)Nc2cccc(C(C)C)c2)cc1Nc1ncccc1-c1nnn[nH]1 [Example 12, 3-(3-(1H-tetrazol-5-yl)pyridin-2-ylamino)-N-(3-isopropylphenyl)-4-methylbenzamide] | ≤ 500
Cc1ccc(C(=O)Nc2cccc(C(C)C)c2)cc1Nc1ncccc1-c1nnn[nH]1 [Example 3, 3-(3-(1H-tetrazol-5-yl)pyridin-2-ylamino)-N-(3-isopropylphenyl)-4-methylbenzamide] | ≤ 1000
Cc1ccc(C(=O)Nc2cccc(C(C)C)c2)cc1Oc1ncccc1-c1cn[nH]c1 [Example 1, 3-(3-(1H-pyrazol-4-yl)pyridin-2-yloxy)-N-(3-isopropylphenyl)-4-methylbenzamide] | ≤ 100
COc1ccc(C2CCCCC2)cc1NC(=O)c1ccc(C)c(Oc2ncccc2-c2cn[nH]c2)c1 [Example 11, 3-(3-(1H-pyrazol-4-yl)pyridin-2-yloxy)-N-(5-cyclohexyl-2-methoxyphenyl)-4-methylbenzamide] | ≤ 100
CN(C)CCCN(C)c1ccc(C(F)(F)F)cc1NC(=O)c1cc(Oc2ncccc2-c2cnco2)ccc1F [Example 2, N-(2-((3-(dimethylamino)propyl)(methyl)amino)-5-(trifluoromethyl)phenyl)-2-fluoro-5-(3-(oxazol-5-yl)pyridin-2-yloxy)benzamide] | ≤ 500
Cc1ccc(C(=O)Nc2cccc(C(C)C)c2)cc1Oc1ncccc1-c1cnn(Cc2ccccc2)c1 [Example 10, 3-(3-(1-benzyl-1H-pyrazol-4-yl)pyridin-2-yloxy)-N-(3-isopropylphenyl)-4-methylbenzamide] | ≤ 500
Cc1ccc(C(=O)Nc2cccc(C(C)C)c2)cc1Oc1ncccc1-c1cnco1 [Example 14, N-(3-isopropylphenyl)-4-methyl-3-(3-(oxazol-5-yl)pyridin-2-yloxy)benzamide] | ≤ 100
